Data published in patent US12060355B2, “Compounds for use in the treatment of fascioliasis” (Merck Patent GmbH, priority 2018, dated 2024).
Like-named read-outs stand apart in the source and are kept apart here.

How the values were obtained:
[1] = system: S. mansoni juvenile worms; assay: S. mansoni juvenile worm assay, in vitro; format: cell-based; details: Schistosoma mansoni, read-out: S. mansoni Juvenile
Description: (§1) The routine biological assays using adult or juvenile S. mansoni worms and cytotoxicity assays using MRC-5 cells have been disclosed previously in Mansour, N. R., et al. (2016). “High Throughput Screening Identifies Novel Lead Compounds with Activity against Larval, Juvenile and Schistosoma mansoni PLoS Negl Trop Dis 10(4): e0004659. Cytotoxicity assays using the HepG2 cell line were carried out as described in Molecular Diversity (2015) 19, 251-261. • (a) F. hepatica adult fluke motility score tested at 5 μM. Motility is scored as per the table below: • Good movement Score 1 • (Curled, sticking on wall, movement on petri plate or conical flask) • Moderate movement Score 2 • (Less vigor but more than 10 seconds pulses or peristaltic waves) • Resting Score 3 • (Less than 10 second pulses in head and body) • Apathetic Score 4 • (Head and body with less than 2 second pulses) • Faint movement of suckers Score 5 • (Movement of oral or ventral suckers only, whole body paralyzed) • Inert Score 6 • (No movement at all or dead) • (b) S. mansoni adult worms • (c) S. mansoni juvenile worms • (d) S. haemotobium adult worms • (e) Cytotoxicity against human MRC-5 cell line • (f) Cytotoxicity against human HepG2 cell lines

human HepG2 cell lines = format: cell-based; details: human HepG2 cell line
F. hepatica adult fluke = F. hepatica adult fluke motility score, in vitro; format: cell-based, Fasciola hepatica; parameters: key: Good movement Score 1 • (Curled, sticking on wall, movement on petri plate or conical flask); Moderate movement Score 2 • (Less vigor but more than 10 seconds pulses or peristaltic waves); Resting Score 3 • (Less than 10 second pulses in head and body); Apathetic Score 4 • (Head and body with less than 2 second pulses); Faint movement of suckers Score 5 • (Movement of oral or ventral suckers only, whole body paralyzed); Inert Score 6 • (No movement at all or dead); details: for F. hepatica motility score after 24 h / F. hepatica motility score after 48 h / F. hepatica motility score after 72 h: adult fluke
From the text: The routine biological assays using adult liver fluke are described in Alessandra Crusco, Cinzia Bordoni, Anand Chakroborty, Kezia C. L. Whatley, Helen Whiteland, Andrew D. Westwell, Karl F. Hoffmann, “Design, synthesis and anthelmintic activity of 7-keto-sempervirol analogues”, European Journal of Medicinal Chemistry, Volume 152, 2018, Pages 87-100.
The routine biological assays using adult or juvenile S. mansoni worms and cytotoxicity assays using MRC-5 cells have been disclosed previously in Mansour, N. R., et al. (2016). “High Throughput Screening Identifies Novel Lead Compounds with Activity against Larval, Juvenile and Schistosoma mansoni PLoS Negl Trop Dis 10(4): e0004659. […] Motility is scored as per the table below: • Good movement Score 1 • (Curled, sticking on wall, movement on petri plate or conical flask) • Moderate movement Score 2 • (Less vigor but more than 10 seconds pulses or peristaltic waves) • Resting Score 3 • (Less than 10 second pulses in head and body) • Apathetic Score 4 • (Head and body with less than 2 second pulses) • Faint movement of suckers Score 5 • (Movement of oral or ventral suckers only, whole body paralyzed) • Inert Score 6 • (No movement at all or dead) • (b) S. mansoni adult worms • (c) S. mansoni juvenile worms • (d) S. haemotobium adult worms • (e) Cytotoxicity against human MRC-5 cell line • (f) Cytotoxicity against human HepG2 cell lines

human MRC-5 cell line = assay: Cytotoxicity against human MRC-5 cell line; format: cell-based
Description: as §1

[2] = 5 μM, score 1 (good movement) to 6 (inert)

Cc1nc2cnc(-c3ccc(F)c(C(F)(F)F)c3)cn2c1-c1c(F)cc(OP(=O)(O)O)cc1F [Example 41, 3,5-difluoro-4-{6-[4-fluoro-3-(trifluoromethyl)phenyl]-2-methyl-imidazo[1,2-a]pyrazin-3-yl}phenoxyphosphonic acid]
IC50 [1]: 100 nM
Cytotox HepG2 (human HepG2 cell lines): 6.8 µM

CC(C)c1nc2ccc(-c3cccc(C(F)(F)F)c3)cn2c1-c1ccc(O)cc1F [Example 94, 3-fluoro-4-[2-isopropyl-6-[3-(trifluoromethyl)phenyl]imidazo[1,2-a]pyridin-3-yl]phenol]
IC50 ([1]; juvenile worms in vitro, IC50): 250 nM
Cytotox HepG2 (human HepG2 cell lines): 10.6 µM
F. hepatica motility score after 24 h (F. hepatica adult fluke; [2]): (6, 6, 6)
F. hepatica motility score after 48 h (F. hepatica adult fluke; 5 μM, score 1 to 6 (inert)): (6, 6, 6)
F. hepatica motility score after 72 h (F. hepatica adult fluke; 5 μM, score 1 to 6 (inert)): (6, 6, 6)

CSc1nc2cc(Cl)c(Oc3cccc(Cl)c3Cl)cc2[nH]1 [Triclabendazole, reference compound]
Mean motility score of F hepatica at 24 h (F. hepatica adult fluke; 40 μM): 2
Mean motility score of F hepatica at 48 h (F. hepatica adult fluke; 40 μM): 3.5
Mean motility score of F hepatica at 72 h (F. hepatica adult fluke; 40 μM): 6
F. hepatica motility score after 24 h (F. hepatica adult fluke; 40 μM, score 1 to 6 (inert)): 3
F. hepatica motility score after 48 h (F. hepatica adult fluke; 40 μM, score 1 to 6 (inert)): 6
F. hepatica motility score after 72 h (F. hepatica adult fluke; 40 μM, score 1 to 6 (inert)): 6

COc1ccc(-c2c(C(C)C)nc3cnc(-c4cccc(C(F)(F)F)c4)cn23)cc1O [Example 1, 2-methoxy-5-[2-(propan-2-yl)-6-[3-(trifluoromethyl)phenyl]imidazo[1,2-a]pyrazin-3-yl]phenol]
Cytotox MRC-5 (human MRC-5 cell line): 21.8 µM
Cytotox HepG2 (human HepG2 cell lines): >11.1 µM

CCc1nc2cnc(-c3cccc(C(F)(F)F)c3)cn2c1-c1ccc(OC)c(O)c1 [Example 7, 2-methoxy-5-[2-ethyl-6-[3-(trifluoromethyl)phenyl]imidazo[1,2-a]pyrazin-3-yl]phenol]
Cytotox MRC-5 (human MRC-5 cell line): >50 µM
Cytotox HepG2 (human HepG2 cell lines): >30 µM

Cc1n[nH]c2ccc(-c3c(C(C)C)nc4cnc(-c5cccc(C(F)(F)F)c5)cn34)cc12 [Example 51, 2-Isopropyl-3-(3-methyl-1H-indazol-5-yl)-6-(3-trifluoromethyl-phenyl)-imidazo[1,2-a]pyrazine]
IC50 ([1]; juvenile worms in vitro, IC50): 830 nM
Cytotox HepG2 (human HepG2 cell lines): 10.3 µM

COc1ccc(-c2c(C(C)C)nc3ccc(-c4cccc(C(F)(F)F)c4)cn23)cc1O [Example 92, 2-methoxy-5-[2-isopropyl-6-[3-(trifluoromethyl)phenyl]imidazo[1,2-a]pyridin-3-yl]phenol]
IC50 ([1]; juvenile worms in vitro, IC50): 360 nM

CC(C)c1nn2cnc(-c3ccc(F)c(C(F)(F)F)c3)cc2c1-c1c(F)cc(O)cc1F [Example 47, 3,5-difluoro-4-(5-(4-fluoro-3-(trifluoromethyl)phenyl)-2-isopropylpyrazolo[1,5-c]pyrimidin-3-yl)phenol]
Cytotox HepG2 (human HepG2 cell lines): 8.9 µM
F. hepatica motility score after 24 h (F. hepatica adult fluke; [2]): (6, 6, 6) at 5 μM
F. hepatica motility score after 48 h (F. hepatica adult fluke; 5 μM, score 1 to 6 (inert)): (6, 6, 6) at 5 μM
F. hepatica motility score after 72 h (F. hepatica adult fluke; 5 μM, score 1 to 6 (inert)): (6, 6, 6) at 5 μM

Fc1ccc(-c2cn3c(-c4ccc5[nH]ncc5c4F)c(C(F)(F)F)nc3cn2)cc1C(F)(F)F [Example 50, 3-(4-Fluoro-1H-indazol-5-yl)-6-(4-fluoro-3-trifluoromethylphenyl)-2-trifluoromethyl-imidazo[1,2-a]pyrazine]
Mean motility score of F hepatica at 24 h (F. hepatica adult fluke; 0.04 μM): 1, 1, 1
Mean motility score of F hepatica at 48 h (F. hepatica adult fluke; 0.04 μM): 1, 1, 1
Mean motility score of F hepatica at 72 h (F. hepatica adult fluke; 0.04 μM): 1, 1, 1
Mean motility score of F hepatica at 24 h (F. hepatica adult fluke; 0.2 μM): 2
Mean motility score of F hepatica at 48 h (F. hepatica adult fluke; 0.2 μM): 2
Mean motility score of F hepatica at 72 h (F. hepatica adult fluke; 0.2 μM): 2.5
Mean motility score of F hepatica at 24 h (F. hepatica adult fluke; 1 μM): 6, 6, 6
Mean motility score of F hepatica at 48 h (F. hepatica adult fluke; 1 μM): 6, 6, 6
Mean motility score of F hepatica at 72 h (F. hepatica adult fluke; 1 μM): 6, 6, 6
Mean motility score of F hepatica at 24 h (F. hepatica adult fluke; 5 μM): 6, 6, 6
Mean motility score of F hepatica at 48 h (F. hepatica adult fluke; 5 μM): 6, 6, 6
Mean motility score of F hepatica at 72 h (F. hepatica adult fluke; 5 μM): 6, 6, 6
F. hepatica motility score after 24 h (F. hepatica adult fluke; [2]): (6, 6, 6) at 5 μM
F. hepatica motility score after 48 h (F. hepatica adult fluke; 5 μM, score 1 to 6 (inert)): (6, 6, 6) at 5 μM
F. hepatica motility score after 72 h (F. hepatica adult fluke; 5 μM, score 1 to 6 (inert)): (6, 6, 6) at 5 μM

COc1ccc(-c2c(C)nc3ccc(-c4cccc(C(F)(F)F)c4)cn23)cc1O [Example 91, 2-methoxy-5-[2-methyl-6-[3-(trifluoromethyl)phenyl]imidazo[1,2-a]pyridin-3-yl]phenol]
IC50 ([1]; juvenile worms in vitro, IC50): 530 nM

CC(C)c1nc2cnc(-c3cccc(C(F)(F)F)c3)cn2c1-c1ccc(O)cc1F [Example 9, 3-fluoro-4-[2-(propan-2-yl)-6-[3-(trifluoromethyl)phenyl]imidazo[1,2-a]pyrazin-3-yl]phenol]
Cytotox MRC-5 (human MRC-5 cell line): 13.7 µM
Cytotox HepG2 (human HepG2 cell lines): 9 µM

Cc1nc2ccc(-c3cccc(C(F)(F)F)c3)cn2c1-c1ccc(O)cc1F [Example 93, 3-fluoro-4-[2-methyl-6-[3-(trifluoromethyl)phenyl]imidazo[1,2-a]pyridin-3-yl]phenol]
IC50 ([1]; juvenile worms in vitro, IC50): 830 nM

O=P(O)(O)Oc1cc(F)c(-c2c(C3CC3)nc3cnc(-c4ccc(F)c(C(F)(F)F)c4)cn23)c(F)c1 [Example 62, Phosphoric acid mono-{4-[2-cyclopropyl-6-(4-fluoro-3-trifluoromethyl-phenyl)-imidazo[1,2-a]pyrazin-3-yl]-3,5-difluoro-phenyl} ester]
IC50 [1]: 3.7 nM
Cytotox HepG2 (human HepG2 cell lines): 14.8 µM

Cc1nc2cnc(-c3cccc(C(F)(F)F)c3)cn2c1-c1ccc(O)cc1F [Example 6, 3-fluoro-4-[2-methyl-6-[3-(trifluoromethyl)phenyl]imidazo[1,2-a]pyrazin-3-yl]phenol]
Cytotox MRC-5 (human MRC-5 cell line): 15.8 µM

CCc1nc2cnc(-c3cccc(C(F)(F)F)c3)cn2c1-c1ccc(O)cc1F [Example 8, 3-fluoro-4-[2-ethyl-6-[3-(trifluoromethyl)phenyl]imidazo[1,2-a]pyrazin-3-yl]phenol]
Cytotox MRC-5 (human MRC-5 cell line): 17.3 µM
Cytotox HepG2 (human HepG2 cell lines): 18.7 µM

Cc1nc2cnc(-c3ccc(F)c(C(F)(F)F)c3)cn2c1-c1ccc(O)cc1F [Example 10, 3-fluoro-4-[2-methyl-6-[4-fluoro-3-(trifluoromethyl)phenyl]imidazo[1,2-a]pyrazin-3-yl]phenol]
Cytotox MRC-5 (human MRC-5 cell line): 14.4 µM
Cytotox HepG2 (human HepG2 cell lines): >11.1 µM

COc1ccc(-c2c(C(C)C)nc3cnc(-c4cccc(C(F)(F)F)c4)cn23)cc1OP(=O)(O)O [Example 28, 2-methoxy-5-[2-(propan-2-yl)-6-[3-(trifluoromethyl)phenyl]imidazo[1,2-a]pyrazin-3-yl]phenoxyphosphonic acid]
IC50 [1]: 183 nM
Cytotox HepG2 (human HepG2 cell lines): 19.2 µM

CC(C)c1nc2cnc(-c3ccc(F)c(C(F)(F)F)c3)nc2n1-c1c(F)cc(O)cc1F [Example 89, 3,5-Difluoro-4-[2-(4-fluoro-3-trifluoromethyl-phenyl)-8-isopropyl-purin-9-yl]-phenol]
Cytotox HepG2 (human HepG2 cell lines): 4.8 µM
F. hepatica motility score after 24 h (F. hepatica adult fluke; [2]): (6, 6, 6)
F. hepatica motility score after 48 h (F. hepatica adult fluke; 5 μM, score 1 to 6 (inert)): (6, 6, 6)
F. hepatica motility score after 72 h (F. hepatica adult fluke; 5 μM, score 1 to 6 (inert)): (6, 6, 6)
